Data: patent US6680003B2, “Chiral doping agents with variable spiral pitch induction and application thereof to a reflective color display” (Asulab S.A., priority 2000, dated 2004)

Assay: Solubility in a nematic

Solubility s: 4.0% < s % mass
Substance: 2-[4′-(6-Acryloyloxyhexyloxy)-2′.5′-methylazophenyl-4-carbonyloy]—5-[4-(6-Acryloyloxyhexyloxy)benzoyl]-1.4:3.6-D-glucitol [Compound 209sf]
